In the NIST ThermoML archive (doi:10.1021/je0301895):
± gives the expanded uncertainty stated by the source.

Tests used:
[1] = Solid-liquid equilibrium temperature; conditions: 101.3 kPa; Crystal
[2] = 298.15 K; 101.33 kPa; Liquid
[3] = xn = mol fraction of the nth substance listed; conditions: 298.15 K, 101 kPa, Liquid

CCCCCCCCN [1-octanamine]
Conditions | Solid-liquid equilibrium temperature [K] | mass density [kg/m3]
[1] | 273.37 ± 0.4 | –
[2] | – | 779.95 ± 0.84

CCCCCCCCN [1-octanamine] + CCCCCCCCCCCO
[3]
Conditions | excess molar volume [m3/mol]
x2 = 0.0752 | -2.147e-07 ± 2.1e-08
x2 = 0.1043 | -2.984e-07 ± 2.2e-08
x2 = 0.1334 | -3.833e-07 ± 2.2e-08
x2 = 0.2069 | -5.724e-07 ± 2.3e-08
x2 = 0.3217 | -8.29e-07 ± 2.5e-08
x2 = 0.4007 | -9.437e-07 ± 2.6e-08
x2 = 0.4491 | -9.846e-07 ± 2.6e-08
x2 = 0.4941 | -1.008e-06 ± 2.6e-08
x2 = 0.5463 | -1.008e-06 ± 2.6e-08
x2 = 0.5958 | -9.803e-07 ± 2.6e-08
x2 = 0.639 | -9.391e-07 ± 2.6e-08
x2 = 0.6894 | -8.58e-07 ± 2.5e-08
x2 = 0.7458 | -7.411e-07 ± 2.4e-08
x2 = 0.7961 | -6.06e-07 ± 2.4e-08
x2 = 0.873 | -4.122e-07 ± 2.2e-08
x2 = 0.9158 | -2.804e-07 ± 2.2e-08

CCCCCCCCN [1-octanamine] + CCCCCCCCCCO
[3]
Conditions | excess molar volume [m3/mol]
x2 = 0.0791 | -2.401e-07 ± 2.1e-08
x2 = 0.1302 | -3.963e-07 ± 2.2e-08
x2 = 0.2056 | -6.005e-07 ± 2.4e-08
x2 = 0.2788 | -7.66e-07 ± 2.5e-08
x2 = 0.3263 | -8.612e-07 ± 2.5e-08
x2 = 0.3863 | -9.584e-07 ± 2.6e-08
x2 = 0.422 | -1.002e-06 ± 2.6e-08
x2 = 0.4623 | -1.03e-06 ± 2.6e-08
x2 = 0.5138 | -1.042e-06 ± 2.6e-08
x2 = 0.5525 | -1.039e-06 ± 2.6e-08
x2 = 0.5811 | -1.023e-06 ± 2.6e-08
x2 = 0.6153 | -9.952e-07 ± 2.6e-08
x2 = 0.6452 | -9.534e-07 ± 2.6e-08
x2 = 0.6956 | -8.646e-07 ± 2.5e-08
x2 = 0.7565 | -7.349e-07 ± 2.4e-08
x2 = 0.8463 | -4.965e-07 ± 2.3e-08
x2 = 0.9025 | -3.208e-07 ± 2.2e-08
x2 = 0.97 | -1.278e-07 ± 2.1e-08

CCCCCCCCN [1-octanamine] + CCCCCCCCCO
[3]
Conditions | excess molar volume [m3/mol]
x2 = 0.0489 | -1.701e-07 ± 2.1e-08
x2 = 0.1572 | -4.742e-07 ± 2.3e-08
x2 = 0.2155 | -6.354e-07 ± 2.4e-08
x2 = 0.2763 | -7.661e-07 ± 2.5e-08
x2 = 0.3283 | -8.704e-07 ± 2.5e-08
x2 = 0.356 | -9.277e-07 ± 2.6e-08
x2 = 0.4125 | -1.005e-06 ± 2.6e-08
x2 = 0.4566 | -1.043e-06 ± 2.6e-08
x2 = 0.4998 | -1.055e-06 ± 2.6e-08
x2 = 0.5326 | -1.057e-06 ± 2.6e-08
x2 = 0.5732 | -1.049e-06 ± 2.6e-08
x2 = 0.6064 | -1.016e-06 ± 2.6e-08
x2 = 0.637 | -9.761e-07 ± 2.6e-08
x2 = 0.6602 | -9.511e-07 ± 2.6e-08
x2 = 0.7321 | -8.074e-07 ± 2.5e-08
x2 = 0.7905 | -6.629e-07 ± 2.4e-08
x2 = 0.8753 | -4.313e-07 ± 2.3e-08
x2 = 0.961 | -1.661e-07 ± 2.1e-08

CCCCCCCCN [1-octanamine] + CCCCCCCCO
[3]
Conditions | excess molar volume [m3/mol]
x2 = 0.043 | -1.921e-07 ± 2.1e-08
x2 = 0.13 | -4.625e-07 ± 2.3e-08
x2 = 0.2358 | -7.264e-07 ± 2.4e-08
x2 = 0.3041 | -8.581e-07 ± 2.5e-08
x2 = 0.347 | -9.393e-07 ± 2.6e-08
x2 = 0.4158 | -1.024e-06 ± 2.6e-08
x2 = 0.4571 | -1.062e-06 ± 2.6e-08
x2 = 0.5174 | -1.071e-06 ± 2.6e-08
x2 = 0.554 | -1.068e-06 ± 2.6e-08
x2 = 0.5877 | -1.052e-06 ± 2.6e-08
x2 = 0.6385 | -1.012e-06 ± 2.6e-08
x2 = 0.709 | -9.034e-07 ± 2.5e-08
x2 = 0.7589 | -8.079e-07 ± 2.5e-08
x2 = 0.875 | -5.102e-07 ± 2.3e-08
x2 = 0.929 | -3.207e-07 ± 2.2e-08
x2 = 0.992 | -7.24e-08 ± 2e-08

CCCCCCCCCCCO [1-undecanol]
Conditions | Solid-liquid equilibrium temperature [K] | mass density [kg/m3]
[1] | 289.63 ± 0.8 | –
[2] | – | 829.34 ± 0.28

CCCCCCCCCCO [decan-1-ol]
Conditions | Solid-liquid equilibrium temperature [K] | mass density [kg/m3]
[1] | 278.67 ± 0.4 | –
[2] | – | 826.64 ± 0.28

CCCCCCCCCO [nonan-1-ol]
Conditions | Solid-liquid equilibrium temperature [K] | mass density [kg/m3]
[1] | 268.1 ± 0.4 | –
[2] | – | 824.6 ± 0.28

CCCCCCCCO [octan-1-ol]
Conditions | Solid-liquid equilibrium temperature [K] | mass density [kg/m3]
[1] | 258.03 ± 0.4 | –
[2] | – | 822.21 ± 0.28
